These results are taken from patent publication US5789447A, “Nitric oxide releasing compounds as protective agents in ischemia reperfusion injury” (priority 1995, dated 1998).

Data set [1] concerns the target T1, XO (Bos taurus, UniProt P80457). Nature of the data set: XO activity by superoxide-induced reduction of ferricytochrome c. In kind it is biochemical. The method, then: (§1) The activity of XO was monitored in the absence and presence of 1 mM DEA/NO by two different assays. Superoxide-induced reduction of ferricytochrome c to ferrocytochrome c was monitored spectrophotometrically at 550 nm (Fridovich, Handbook of Method for Oxygen Radical Research, pages 213-215 (1985)). The reaction was carried out in a 1 ml volume in aerated phosphate buffer (pH 7.8, 50 mM) containing 50 μM DETAPAC. HX was maintained at 2.5 mM and ferricytochrome c at 20 μM. The reactions were initiated with the addition of XO (final concentration of 0.2 units/ml). The activity of XO in the absence and presence of 1 mM DEA/NO was directly monitored by measuring the production of uric acid spectrophotometrically at 305 nm for 10 min under the same conditions but in the absence of ferricytochrome c. All enzymatic assays and chemical reactions were done at 37° C.

Data set [2] has as its system Chinese hamster V79 lung fibroblasts. The experiment in a line: V79 clonogenic survival, hypoxanthine/xanthine oxidase (HX/XO) cytotoxicity. The method, then: Chinese hamster V79 lung fibroblasts were cultured in F12 medium supplemented with 10% fetal calf serum and antibiotics. Cell survival was assessed by clonogenic assay with 85-95% plating efficiency. Stock cultures of exponentially growing cells were trypsinized, rinsed, and plated (7×10^5 cells/dish) into a number of 100 cm^2 petri dishes and incubated 16 hr at 37° C. prior to experimental protocols.
It has been shown that exposure of V79 cells to hydrogen peroxide results in dose-dependent cytotoxicity (Mitchell et al., supra).
HX and XO were purchased from Boehringer Co. (Indianapolis, Ind.). Nitrite, diethylamine, sulfinamide, diethylenetriaminepentaacetic acid (DETAPAC) and N-(1-naphthyl)ethylenediaminedihydrogenchloride (NEDD) were purchased from Aldrich (Milwaukee, Wis.). Cytosine-β-D-arabinofuranoside and ferricytochrome c were purchased from Sigma (St. Louis, Mo.). DEA/NO and SPER/NO were synthesized as previously described (Maragos et al., (1991), supra).
Exponentially growing cultures of Chinese hamster V79 fibroblasts were exposed to either HX/XO (final concentration of HX was 0.5 mM; 0.08 units/ml XO were used) for various amounts of time (FIG. 1A) or to various concentrations of hydrogen peroxide for one hour (FIG. 1B). […] Additionally, 1 mM DEA/NO was added to medium in the absence of cells, incubated at 37° C. for 1 hr or 16 hrs, and then added just prior to the addition of hydrogen peroxide to evaluate the effects of DEA/NO which had released NO. After treatment, cell monolayers were rinsed twice with phosphate-buffered saline (PBS), trypsinized, counted and plated in triplicate for macroscopic colony formation. Each dose determination was plated in triplicate and experiments were repeated a minimum of two times. Plates were incubated for 7 days, after which colonies were fixed with methanol/acetic acid (3:1), stained with crystal violet, and counted. Colonies containing more than 50 cells were scored.

Data set [3] has the same test system. The experiment in a line: V79 clonogenic survival, hydrogen peroxide cytotoxicity. It is filed as cell-based. The source says:
Colonies containing more than 50 cells were scored.

The next data set concerns mesencephalic neurons. The experiment in a line: Morphology of mesencephalic neurons (neurites and somas). It is filed as cell-based, Sprague Dawley rats. The method, then:
(§2) The ventral tegmental mesencephalon was dissected from 14 day old embryos (precisely timed pregnant Sprague Dawley rats; Zivic-Miller, Allison Park, Pa.) under sterile conditions and mechanically dissociated into complete culture medium. The culture medium consisted of a 1:1 mixture of modified minimum essential medium and nutrient mixture F-12 supplemented with 6 mg/ml D-gluose, 2 mM glutamine, 0.5 U/ml penicillin G, 0.5 mg/ml streptomycin (all from Gibco, Grand Island, N.Y.) and 15% equine serum (Hyclone, Logan, Utah). Cells were plated into multiwell plates that were previously coated with poly-D-lysine (15 μg/ml) and laminin (10 μg/ml) at a density of 40,000 cells/cm^2 (Costar). The cells were maintained for 5-7 days at 37° C. in an atmosphere of 95% air and 5% CO2 saturated with H2 O. On the fifth day of culture 1 μM cytosine-β-D-arabinofuranoside was added to inhibit glial cell growth.
When cells were exposed to hydrogen peroxide for 1 hr, varicosities formed in the neurites and somas swelled. Exposure to HX/XO for as short as 5 min elicited similar morphological changes in mesencephalic neurons.

Data set [4] in a line: Chemical controls: DEA/NO or NO with hydrogen peroxide. It is filed as physicochemical. To be noted: presence of 1 mM hydrogen peroxide. Here is the method: Anaerobic solutions of 1 mM hydrogen peroxide in 10 mM phosphate buffer, pH 7.4, were mixed with 1 mM NO. […] The rate of decomposition of DEA/NO was unaffected by the presence of 1 mM hydrogen peroxide; likewise, hydrogen peroxide was not consumed by DEA/NO or intermediates of the DEA/NO decomposition reaction as measured by the production of I3^- (Hochanadel, J. Phys. Chem., 56, 587-594 (1952)).

The target in data set [5] is T1, XO. The experiment in a line: XO activity by uric acid production at 305 nm. It is filed as biochemical. Here is the method: as §1
The subject of data set [6] is ventral mesencephalic cells. Nature of the data set: [3H]dopamine uptake after hydrogen peroxide or HX/XO exposure. In kind it is cell-based, Sprague Dawley rats. Here is the method: as §2
Uptake of dopanine by dopaminergic neurons was assayed as follows. The cells in each well were washed three times with 1 ml PBS containing 6 mg/ml glucose and thereafter Dulbecco's modified essential medium (Quality Biological, Inc., Farmingham, Mass.) containing 6 mg/ml D-glucose, 50 μM ascorbic acid, and 5×10^-8 M [^3 H]dopamine (NEN, Boston, Mass.; specific activity of […]) was added and incubated for 15 min at 37° C. [^3 H]dopamine uptake was stopped by aspirating the incubation solution and washing the cells three times with ice-cold PBS containing 6 mg/ml D-glucose. The cells were removed by washing the wells with an equal volume of 0.2N NaOH and 0.2N HCl containing 0.02% Triton X-100. The residual intracellular radioactivity in the cells was determined by scintillation spectroscopy.
Accordingly, ventral mesencephalic cell cultures were exposed to 100 μM H2 O2 for 1 hr in the presence and absence of 100 μM DEA/NO and evaluated for their ability to take up dopamine.
In a separate study, cells were cultured for 7 days and then exposed to 50 or 100 μM hydrogen peroxide for 60 min or to 0.04 units/ml HX/XO for 5 or 10 min in the absence or presence of 100 μM DEA/NO. The cells were washed with PBS containing 6 g/l D-glucose, culture medium was added, and the cells were incubated for 18 hr. The ability of the cells (6 wells of 450,000 cells/well per group) to take up ^3 [H]-dopamine was measured. These cells were exposed to ten times less hydrogen peroxide or HX/XO than the V79 cells described above.

Another data set concerns NMDA receptor. To be noted: U.S. Pat. No. 5,234,956; cited from earlier work.
For another data set, the system named is neuronal cell death. The note with it: Lafon-Cazal et al.; cited from earlier work.
Another data set has as its system lung tissue. To be noted: high concentrations in the gas phase; cited from earlier work.
For data set [7] the following is noted: Kanner et al.; cited from earlier work.
The conditions of data set [8]: Saran et al. 1990; cited from earlier work.
The subject of data set [9] is Leukocyte-endothelial cell adhesive interactions. To be noted: postcapillary venules; Kubes et al. 1991; cited from earlier work.
For a further data set, the system named is platelet aggregation. To be noted: Rubanyi et al.; cited from earlier work.
Data set [10] relates to Primary neuronal cell cultures. To be noted: as high as 1 mM; cited from earlier work.
The test system of data set [11] is endothelial cell monolayers. The note with it: Radomski et al.; cited from earlier work.
Where [12] appears, read: 100 μM with hydrogen peroxide or HX/XO.

“Also recorded” adds a separate entry of the source.

T1 sequence (P80457 whole entry): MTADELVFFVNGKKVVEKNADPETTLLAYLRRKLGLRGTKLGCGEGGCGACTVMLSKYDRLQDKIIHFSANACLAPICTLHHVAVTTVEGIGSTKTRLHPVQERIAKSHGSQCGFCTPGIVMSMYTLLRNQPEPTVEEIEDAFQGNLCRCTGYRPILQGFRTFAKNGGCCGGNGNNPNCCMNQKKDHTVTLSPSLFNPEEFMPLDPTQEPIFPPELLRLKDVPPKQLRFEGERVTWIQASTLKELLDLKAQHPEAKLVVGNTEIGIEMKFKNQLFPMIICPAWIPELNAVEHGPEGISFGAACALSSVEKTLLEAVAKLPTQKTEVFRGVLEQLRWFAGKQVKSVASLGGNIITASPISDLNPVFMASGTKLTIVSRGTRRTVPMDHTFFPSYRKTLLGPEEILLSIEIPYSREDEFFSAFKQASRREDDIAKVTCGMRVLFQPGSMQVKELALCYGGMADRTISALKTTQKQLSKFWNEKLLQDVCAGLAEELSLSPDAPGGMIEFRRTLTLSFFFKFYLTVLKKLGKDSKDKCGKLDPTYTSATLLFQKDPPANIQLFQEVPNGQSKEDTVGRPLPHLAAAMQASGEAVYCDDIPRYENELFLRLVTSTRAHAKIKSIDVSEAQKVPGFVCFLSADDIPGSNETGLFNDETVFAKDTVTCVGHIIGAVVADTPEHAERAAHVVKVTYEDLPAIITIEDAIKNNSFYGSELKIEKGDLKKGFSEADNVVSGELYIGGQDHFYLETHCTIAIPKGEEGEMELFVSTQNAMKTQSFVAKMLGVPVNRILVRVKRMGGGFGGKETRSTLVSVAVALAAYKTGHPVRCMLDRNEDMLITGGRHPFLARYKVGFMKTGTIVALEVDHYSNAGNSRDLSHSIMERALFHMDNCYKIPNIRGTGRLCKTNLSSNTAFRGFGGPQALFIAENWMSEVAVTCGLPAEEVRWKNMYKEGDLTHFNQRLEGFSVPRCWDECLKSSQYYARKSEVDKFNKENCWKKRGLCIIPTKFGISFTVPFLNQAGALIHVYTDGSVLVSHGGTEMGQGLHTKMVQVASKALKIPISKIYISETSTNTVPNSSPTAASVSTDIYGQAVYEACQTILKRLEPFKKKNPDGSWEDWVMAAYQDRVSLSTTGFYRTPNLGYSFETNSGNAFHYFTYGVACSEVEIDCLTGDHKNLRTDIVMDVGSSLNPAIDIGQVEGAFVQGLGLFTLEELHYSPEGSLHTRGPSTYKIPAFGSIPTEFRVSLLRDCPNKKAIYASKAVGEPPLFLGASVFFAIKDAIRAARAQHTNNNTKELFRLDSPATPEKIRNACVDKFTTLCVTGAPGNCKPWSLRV

As to `CCN(CC)/[N+]([O-])=N/[O-].[Na+]` [DEA/NO], the “inhibition of XO activity, production of superoxide (cytochrome c reduction)” value at XO [1] (1 mM, preincubated with HX/XO) is listed as “did not inhibit the activity of XO”. In addition, at XO [1] (presence of DEA/NO), the “SOD sensitive ferricytochrome c reduction” value is “quenching; also recorded: inhibited”. Also, the “protection against HX/XO-induced cell killing” value is “marginal protection” in [2] (0.1 mM) and “significantly protected against cell killing” in data set [2] (1 mM). Besides, the “protection against hydrogen peroxide cytotoxicity” value was “nearly complete protection” in data set [3] (1 mM, added just prior to hydrogen peroxide, 1 hr exposure) and “only modest protection” in data set [3] (1 mM, allowed to release NO for 1 hr prior to hydrogen peroxide). The “effect on hydrogen peroxide cytotoxicity” value in [3] (1 mM, incubated 16 hr in medium prior to hydrogen peroxide) was “enhanced the cytotoxicity of hydrogen peroxide”. In data set [3] (1 hr hydrogen peroxide followed by 1 hr treatment with 1 mM), the “effect of treatment after hydrogen peroxide” value is recorded as “did not treat oxygen free radical mediated tissue damage”. Also, in the data set with mesencephalic neurons (100 μM alone, 1 hr), the morphological changes result is recorded as “failed to cause morphological changes”. In the data set with mesencephalic neurons (setting [12]), the “abnormalities in the neurites and somas” value is “did not demonstrate abnormalities in the neurites and somas”. For the same compound, in data set [4], the “rate of decomposition / rate of formation of NO” value is given as “not altered; also recorded: unaffected”. Moreover, the “inhibition of XO activity, uric acid production” value on XO [5] (1 mM, preincubated with HX/XO) is given as “did not inhibit the activity of XO”. On XO [5] (presence of DEA/NO), the “uric acid production (UV 305 nm) / XO substrate turnover” value is “not inhibited; also recorded: nor affect XO substrate turnover”. The “[3H] Dopamine Uptake” value was 2.8 ± 0.11 pmol/well/15 min in [6] (100 μM DEA/NO with 50 μM H2O2, 60 min); 2.6 ± 0.22 pmol/well/15 min in data set [6] (100 μM DEA/NO with 100 μM H2O2, 60 min); 2.6 ± 0.15 pmol/well/15 min in [6] (100 μM DEA/NO with 0.04 U/ml HX/XO, 5 min); 2.3 ± 0.10 pmol/well/15 min in [6] (100 μM DEA/NO with 0.04 U/ml HX/XO, 10 min); 2.7 ± 0.11 pmol/well/15 min in data set [6] (100 μM DEA/NO, no addition (None)). Moreover, the “protection of dopamine uptake” value in data set [6] (setting [12]) is “complete protection”. For the same compound, the “retained function (dopamine uptake)” value in data set [6] (hydrogen peroxide in presence of DEA/NO (100 μM, 1 hr), FIG. 3) is approximately 100%.

As to `O=[N+]([O-])OCC(CO[N+](=O)[O-])O[N+](=O)[O-]` [nitroglycerin], the “NMDA receptor-mediated neuronal damage” value with NMDA receptor was “reduce NMDA receptor-mediated neuronal damage”.

As for `CC1(C)CCC=[N+]1[O-]` [DMPO], the “reduction of neuronal cell death” value in the data set on neuronal cell death is listed as “more efficiently than the nitric oxide synthase inhibitor L-N-nitroarginine”.

As to nitric oxide [NO], the lung tissue damage entry with lung tissue is reported as “damages lung tissue”. For the same compound, the “quenching of Fenton-type oxidation” value in data set [7] is “could quench Fenton-type oxidation”. In addition, the “reaction rate constant for NO and O2” value in data set [8] was 5.6×10^7 M^-1 S^-1. Moreover, the “leukocyte-endothelial cell adhesive interactions” value in data set [9] was “inhibited”. Besides, in the data set on platelet aggregation, the platelet aggregation result was “block platelet aggregation”. Moreover, the “adverse effects in primary neuronal cell cultures” value in [10] is on record as “no adverse effects”. Also, in data set [11], the “platelet adhesion to endothelial cell monolayers” value was “reduce platelet adhesion to endothelial cell monolayers”.
